Data as given in PMC12621043, “Un-LOK-ing a New Approach for Conformational Selective Targeting of STK10 (LOK)” (ACS Medicinal Chemistry Letters, 2025).

target: T1, BRPF1B (Homo sapiens, UniProt P55201); assay: DSF Tm panel; type: binding; conditions: 10 μM compound
T1 construct: purchased in-house DSF kinase panel (SGC-style construct names; the trailing letter is the construct ID)
T1 sequence (P55201 1-1214): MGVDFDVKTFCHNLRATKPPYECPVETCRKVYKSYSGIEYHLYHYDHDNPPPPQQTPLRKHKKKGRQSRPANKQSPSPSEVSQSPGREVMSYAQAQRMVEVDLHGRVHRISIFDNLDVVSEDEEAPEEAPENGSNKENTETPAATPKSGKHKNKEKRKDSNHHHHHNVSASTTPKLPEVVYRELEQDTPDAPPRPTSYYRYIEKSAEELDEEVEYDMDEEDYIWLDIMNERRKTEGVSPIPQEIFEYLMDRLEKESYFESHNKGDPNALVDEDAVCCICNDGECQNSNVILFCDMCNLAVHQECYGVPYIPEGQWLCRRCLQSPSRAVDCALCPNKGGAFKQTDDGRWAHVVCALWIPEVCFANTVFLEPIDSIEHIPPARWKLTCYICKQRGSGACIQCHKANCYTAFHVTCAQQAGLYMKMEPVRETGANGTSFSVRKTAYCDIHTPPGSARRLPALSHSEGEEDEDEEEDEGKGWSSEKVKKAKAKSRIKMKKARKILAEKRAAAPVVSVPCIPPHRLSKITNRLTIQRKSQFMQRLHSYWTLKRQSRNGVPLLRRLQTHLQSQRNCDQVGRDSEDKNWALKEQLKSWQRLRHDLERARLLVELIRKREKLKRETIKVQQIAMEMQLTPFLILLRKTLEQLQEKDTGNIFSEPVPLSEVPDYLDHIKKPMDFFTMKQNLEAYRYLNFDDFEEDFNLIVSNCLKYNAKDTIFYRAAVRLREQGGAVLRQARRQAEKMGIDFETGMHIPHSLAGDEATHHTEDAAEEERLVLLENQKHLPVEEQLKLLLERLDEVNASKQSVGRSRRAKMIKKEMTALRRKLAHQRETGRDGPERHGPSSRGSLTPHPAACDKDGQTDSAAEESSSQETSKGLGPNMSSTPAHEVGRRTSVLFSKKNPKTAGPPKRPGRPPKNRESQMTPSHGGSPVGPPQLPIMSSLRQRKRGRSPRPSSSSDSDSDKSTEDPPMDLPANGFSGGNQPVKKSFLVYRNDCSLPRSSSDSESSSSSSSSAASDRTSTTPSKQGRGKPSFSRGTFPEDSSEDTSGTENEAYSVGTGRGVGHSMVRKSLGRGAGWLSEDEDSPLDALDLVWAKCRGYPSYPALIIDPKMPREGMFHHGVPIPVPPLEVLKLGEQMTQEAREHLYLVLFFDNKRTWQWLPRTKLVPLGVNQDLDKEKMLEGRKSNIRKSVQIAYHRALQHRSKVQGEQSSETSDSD

Compared with `Cc1cc(Br)ccc1CNC(=O)Nc1ccc2cc1OCCOCCNc1ccn3ncc-2c3n1` [compound 24], `Cc1ccc(F)cc1CNC(=O)Nc1ccc2cc1OCCOCCNc1ccn3ncc-2c3n1` [compound 26] is lower in ΔTm at 10 µM: 1.6 °C for the first, 1 °C for the second.

Going from `O=C(NCc1ccccc1C(F)(F)F)Nc1ccc2cc1OCCOCCNc1ccn3ncc-2c3n1` [compound 27] to `COc1ccccc1CNC(=O)Nc1ccc2cc1OCCOCCNc1ccn3ncc-2c3n1` [compound 29], the ΔTm at 10 µM falls from 1.9 °C to -0.1 °C.

Compared with `O=C(NCc1ccc(C(F)(F)F)cc1)Nc1ccc2cc1OCCOCCNc1ccn3ncc-2c3n1` [compound 28], `COc1ccc(CNC(=O)Nc2ccc3cc2OCCOCCNc2ccn4ncc-3c4n2)cc1` [compound 31] is lower in ΔTm at 10 µM: 2.2 °C for the first, 1 °C for the second.

Compared with `COc1cccc(CNC(=O)Nc2ccc3cc2OCCOCCNc2ccn4ncc-3c4n2)c1` [compound 30], `COc1ccc(CNC(=O)Nc2ccc3cc2OCCOCCNc2ccn4ncc-3c4n2)cc1F` [compound 32] is higher in ΔTm at 10 µM: 0.2 °C for the first, 1.5 °C for the second.

First: COc1cc(CNC(=O)Nc2ccc3cc2OCCOCCNc2ccn4ncc-3c4n2)ccc1F [compound 33]
Second: C[C@H](NC(=O)Nc1ccc2cc1OCCOCCNc1ccn3ncc-2c3n1)c1ccccc1 [compound 34]
The ΔTm at 10 µM of the first is higher: 1.2 °C for the first, 0.5 °C for the second.

target: T2, NEK2A (Homo sapiens, UniProt P51955); assay: DSF Tm panel; type: binding; conditions: 10 μM compound
T2 construct: purchased in-house DSF kinase panel (SGC-style construct names; the trailing letter is the construct ID)
T2 sequence (P51955 1-271): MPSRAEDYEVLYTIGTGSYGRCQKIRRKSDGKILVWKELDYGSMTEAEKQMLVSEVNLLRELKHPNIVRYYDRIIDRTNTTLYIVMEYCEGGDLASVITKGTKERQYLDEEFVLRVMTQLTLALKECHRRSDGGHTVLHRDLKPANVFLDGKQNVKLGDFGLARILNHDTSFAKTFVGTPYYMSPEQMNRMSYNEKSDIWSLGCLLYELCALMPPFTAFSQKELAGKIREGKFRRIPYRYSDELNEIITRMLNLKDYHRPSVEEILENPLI

Compared with `Cc1cc(Br)ccc1CNC(=O)Nc1ccc2cc1OCCOCCNc1ccn3ncc-2c3n1` [compound 24], `Cc1ccc(F)cc1CNC(=O)Nc1ccc2cc1OCCOCCNc1ccn3ncc-2c3n1` [compound 26] is higher in ΔTm at 10 µM: -1.3 °C for the first, -1.2 °C for the second.

Compared with `O=C(NCc1ccccc1C(F)(F)F)Nc1ccc2cc1OCCOCCNc1ccn3ncc-2c3n1` [compound 27], `COc1ccccc1CNC(=O)Nc1ccc2cc1OCCOCCNc1ccn3ncc-2c3n1` [compound 29] is higher in ΔTm at 10 µM: -0.4 °C for the first, -0.3 °C for the second.

First: O=C(NCc1ccc(C(F)(F)F)cc1)Nc1ccc2cc1OCCOCCNc1ccn3ncc-2c3n1 [compound 28]
Second: COc1ccc(CNC(=O)Nc2ccc3cc2OCCOCCNc2ccn4ncc-3c4n2)cc1 [compound 31]
The ΔTm at 10 µM of the first is higher: 0.4 °C for the first, -1.3 °C for the second.

Compared with `COc1cccc(CNC(=O)Nc2ccc3cc2OCCOCCNc2ccn4ncc-3c4n2)c1` [compound 30], `COc1ccc(CNC(=O)Nc2ccc3cc2OCCOCCNc2ccn4ncc-3c4n2)cc1F` [compound 32] is lower in ΔTm at 10 µM: -0.5 °C for the first, -1.3 °C for the second.

`COc1cc(CNC(=O)Nc2ccc3cc2OCCOCCNc2ccn4ncc-3c4n2)ccc1F` [compound 33] and `C[C@H](NC(=O)Nc1ccc2cc1OCCOCCNc1ccn3ncc-2c3n1)c1ccccc1` [compound 34] are the same in ΔTm at 10 µM: -1.3 °C for the first, -1.3 °C for the second.

target: T3, RIOK1A (Homo sapiens, UniProt Q9BRS2); assay: DSF Tm panel; type: binding; conditions: 10 μM compound
T3 construct: purchased in-house DSF kinase panel (SGC-style construct names; the trailing letter is the construct ID)
T3 sequence (Q9BRS2 143-494): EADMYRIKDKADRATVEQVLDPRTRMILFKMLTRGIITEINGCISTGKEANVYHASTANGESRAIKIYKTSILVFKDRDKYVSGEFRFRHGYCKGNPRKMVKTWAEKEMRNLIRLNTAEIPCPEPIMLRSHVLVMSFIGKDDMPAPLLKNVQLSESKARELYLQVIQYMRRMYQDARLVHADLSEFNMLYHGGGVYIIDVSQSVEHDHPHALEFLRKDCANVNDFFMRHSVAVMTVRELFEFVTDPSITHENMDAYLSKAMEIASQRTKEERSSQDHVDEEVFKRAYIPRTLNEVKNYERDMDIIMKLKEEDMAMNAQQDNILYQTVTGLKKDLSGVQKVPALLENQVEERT

Compared with `O=C(NCc1ccccc1)Nc1ccc2cc1OCCOCCNc1ccn3ncc-2c3n1` [compound 16], `O=C(NCc1ccccc1Cl)Nc1ccc2cc1OCCOCCNc1ccn3ncc-2c3n1` [compound 17] is higher in ΔTm at 10 µM: 0.1 °C for the first, 0.5 °C for the second.

First: O=C(NCc1cccc(Cl)c1)Nc1ccc2cc1OCCOCCNc1ccn3ncc-2c3n1 [compound 18]
Second: O=C(NCc1ccc(Cl)cc1)Nc1ccc2cc1OCCOCCNc1ccn3ncc-2c3n1 [compound 19]
The ΔTm at 10 µM of the first is higher: 1.4 °C for the first, 1.1 °C for the second.

Going from `O=C(NCc1ccc(Cl)cc1Cl)Nc1ccc2cc1OCCOCCNc1ccn3ncc-2c3n1` [compound 20] to `O=C(NCc1ccc(Cl)cc1F)Nc1ccc2cc1OCCOCCNc1ccn3ncc-2c3n1` [compound 21], the ΔTm at 10 µM falls from 1.9 °C to -0.1 °C.

Going from `Cc1cc(Cl)ccc1CNC(=O)Nc1ccc2cc1OCCOCCNc1ccn3ncc-2c3n1` [compound 23] to `CN1CCN(C(=O)Nc2ccc3cc2OCCOCCNc2ccn4ncc-3c4n2)CC1` [compound 35], the ΔTm at 10 µM rises from 0.6 °C to 1.2 °C.

target: T4, TOPKA (Homo sapiens, UniProt Q96KB5); assay: DSF Tm panel; type: binding; conditions: 10 μM compound
T4 construct: purchased in-house DSF kinase panel (SGC-style construct names; the trailing letter is the construct ID)
T4 sequence (Q96KB5 1-322): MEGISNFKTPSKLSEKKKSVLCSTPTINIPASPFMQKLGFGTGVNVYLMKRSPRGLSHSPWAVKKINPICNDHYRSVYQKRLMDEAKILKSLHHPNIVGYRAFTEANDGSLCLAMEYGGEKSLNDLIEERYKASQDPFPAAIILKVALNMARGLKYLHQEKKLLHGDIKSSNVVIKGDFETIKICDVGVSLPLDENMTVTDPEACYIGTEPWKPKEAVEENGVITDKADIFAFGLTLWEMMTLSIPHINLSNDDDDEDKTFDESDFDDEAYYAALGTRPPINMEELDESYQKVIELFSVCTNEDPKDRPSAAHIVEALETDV

`O=C(NCc1ccccc1)Nc1ccc2cc1OCCOCCNc1ccn3ncc-2c3n1` [compound 16] and `O=C(NCc1ccccc1Cl)Nc1ccc2cc1OCCOCCNc1ccn3ncc-2c3n1` [compound 17] are the same in ΔTm at 10 µM: 0.4 °C for the first, 0.4 °C for the second.

First: O=C(NCc1cccc(Cl)c1)Nc1ccc2cc1OCCOCCNc1ccn3ncc-2c3n1 [compound 18]
Second: O=C(NCc1ccc(Cl)cc1)Nc1ccc2cc1OCCOCCNc1ccn3ncc-2c3n1 [compound 19]
The ΔTm at 10 µM of the first is higher: 0.5 °C for the first, 0.2 °C for the second.

Going from `O=C(NCc1ccc(Cl)cc1Cl)Nc1ccc2cc1OCCOCCNc1ccn3ncc-2c3n1` [compound 20] to `O=C(NCc1ccc(Cl)cc1F)Nc1ccc2cc1OCCOCCNc1ccn3ncc-2c3n1` [compound 21], the ΔTm at 10 µM falls from 1.2 °C to 0.6 °C.

Compared with `Cc1cc(Cl)ccc1CNC(=O)Nc1ccc2cc1OCCOCCNc1ccn3ncc-2c3n1` [compound 23], `CN1CCN(C(=O)Nc2ccc3cc2OCCOCCNc2ccn4ncc-3c4n2)CC1` [compound 35] is lower in ΔTm at 10 µM: 1.5 °C for the first, -0.4 °C for the second.
